From US20060014834A1, “Retinoid solutions and formulations made therefrom” (priority 2004, published 2006)

Key:
Format in all cases: physicochemical
[1] = Solubility of tretinoin in ethanol, ester cosolvent or both
Experimental: The method of preparing the solution is not critical. Typically, the cosolvents are combined and the retinoid is added with stirring at room temperature until completely solubilized.
It has been experimentally determined that tretinoin is not soluble in ethanol in the ratios set forth in Examples A-D:
Isopropyl myristate (“IPM”) can be replaced with alkyl benzoate, isopropyl palmitate (“IPP”) or diisopropyl adipate to achieve the same results.
In Examples E-J where alcohol is not present, the retinoids are not soluble in the esters alone. This further confirms the present finding that retinoids can be solubilized in a small amount of alcohol by using specific cosolvents.
To effectively utilize the chamber in a chamber delivery system, one must balance the concentration of the actives in both chambers. This is necessary to achieve the final, active concentration, which is efficacious as well as compliant with the FDA. The present disclosure teaches how to prepare higher concentrations of tretinoin in solution for the small chamber by using lower concentrations of alcohol by means of cosolvents such a alkyl benzoate, isopropyl myristate, and isopropyl palmitate.

[2] = Elevated temperature stability of the actives in the oil in water emulsion of Example 10; settings: Example 10 emulsion
Experimental: The elevated temperature stability of the actives in the oil in water emulsion of Example 10 was determined using techniques within the purview of those skilled in the art.

[3] = Elevated temperature stability of the actives in the liquid to powder suspension system of Example 13; settings: Example 13 suspension
Experimental: The elevated temperature stability of the actives in the liquid to powder suspension system of Example 13 was determined using techniques known to those skilled in the art.

[4] = 25° C., 2 months, unit not given
[5] = 25° C., 3 months, unit not given
[6] = 30° C., 1 month, unit not given
[7] = 30° C., 2 months, unit not given
[8] = 30° C., 3 months, unit not given

Question: Which “dissolution in alcohol using ester cosolvent” value ([1]; 1 gram of tretinoin in 3 grams of alcohol (33.3 percent solution) with alkyl benzoate, isopropyl myristate, isopropyl palmitate or other esters) does the source give for `CC1=C(/C=C/C(C)=C/C=C/C(C)=C/C(=O)O)C(C)(C)CCC1` [Tretinoin] here?
Answer: completely dissolved

Question: What about the solubility in ethanol ([1]; ethanol alone, tretinoin:ethanol ratios of Examples A-D) of the same compound?
Answer: not soluble

Question: And the “solubility in ethanol plus cosolvent (clear solution)” value ([1]; same tretinoin:ethanol ratios, cosolvent IPM added (Examples 1-4))?
Answer: completely dissolve into a clear solution

Question: What about the “active content, 25° C., 2 months” value [2, 4] of the same compound?
Answer: 0.0497

Question: What about the “active content, 25° C., 3 months” value [2, 5] of the same compound?
Answer: 0.0497

Question: And the “active content, 30° C., 1 month” value [2, 6]?
Answer: 0.0490

Question: And the “active content, 30° C., 2 months” value [2, 7]?
Answer: 0.0490

Question: And the “active content, 30° C., 3 months” value [2, 8]?
Answer: 0.0490

Question: What about the “active content, Initial” value ([2]; initial) of the same compound?
Answer: 0.0497%

Question: What about the “active content, 25° C., 1 month” value ([3]; 25° C., 1 month, unit not given) of the same compound?
Answer: 0.0508

Question: What about the “active content, 25° C., 2 months” value [3, 4] of the same compound?
Answer: 0.0499

Question: What about the “active content, 25° C., 3 months” value [3, 5] of the same compound?
Answer: 0.0497

Question: What about the “active content, 30° C., 1 month” value [3, 6] of the same compound?
Answer: 0.051

Question: And the “active content, 30° C., 2 months” value [3, 7]?
Answer: 0.0498

Question: What about the “active content, 30° C., 3 months” value [3, 8] of the same compound?
Answer: 0.0488

Question: What about the “active content, Initial” value ([3]; initial) of the same compound?
Answer: 0.0517%
